In article PMC12864978, “Covalent modification of a glutamic acid inspired by HaloTag technology” (Nature Communications, 2026):

Legend:
[1] = target: T1, Jurkat cell lysate proteome (Homo sapiens, UniProt Q9H2H9); assay: In-lysate thermal proteome profiling (TPP)
T1 sequence (Q9H2H9 1-487): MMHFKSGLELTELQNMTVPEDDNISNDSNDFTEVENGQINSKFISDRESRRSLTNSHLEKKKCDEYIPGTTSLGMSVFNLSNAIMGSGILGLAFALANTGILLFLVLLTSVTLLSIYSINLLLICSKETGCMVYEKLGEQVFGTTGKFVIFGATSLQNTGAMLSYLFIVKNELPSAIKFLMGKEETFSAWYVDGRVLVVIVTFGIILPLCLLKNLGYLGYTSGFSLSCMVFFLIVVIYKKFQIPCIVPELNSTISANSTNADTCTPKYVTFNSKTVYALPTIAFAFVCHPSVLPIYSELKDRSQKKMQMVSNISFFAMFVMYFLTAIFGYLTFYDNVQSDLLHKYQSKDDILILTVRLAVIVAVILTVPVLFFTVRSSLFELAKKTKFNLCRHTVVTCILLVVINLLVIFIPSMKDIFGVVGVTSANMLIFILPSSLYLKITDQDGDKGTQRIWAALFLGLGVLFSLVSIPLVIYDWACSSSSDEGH
Method: (§1) Jurkat cells were grown to a density of 1.0–2.5 × 10⁶ cells/ml. A 100 ml aliquot of the suspension was divided equally into two Falcon tubes and chilled on ice for 2 min. Cells were pelleted by centrifugation at 350×g for 3 min at room temperature. After discarding the supernatant, the combined pellet was resuspended in 25 ml of ice-cold PBS buffer. The washing step—centrifugation at 350×g for 2 min at room temperature, followed by supernatant removal—was further repeated twice. Following the final wash, the cell pellet was resuspended in 1.5 ml of PBS containing 0.4% (v/v) NP40 alternative and flash-frozen in liquid nitrogen. […] The resulting lysate was separated by ultracentrifugation at 100,000×g for 20 min at 4 °C (Beckman Coulter Optima MAX-XP, MLA-80 rotor). The supernatant was carefully collected, snap-frozen in liquid nitrogen, and stored at −80 °C for subsequent analysis.
(§2) Protein concentration was quantified using the Bradford protein assay. […] Following incubation, each aliquot was further subdivided into nine 120 µl portions in PCR tubes. […] For analysis, 75 µl of each supernatant was allocated for mass spectrometry-based thermal protein profiling (TPP), while the remaining 25 µl was used for immunoblotting to assess PDEδ levels.
(§3) For mass spectrometric analysis, sample processing was further proceeded with reduction and alkylation, followed by acetone precipitation and tryptic digestion. Each digested aliquot was then labelled with isobaric TMT reagents (Thermo Fisher Scientific, A52047) corresponding to its specific temperature condition from the thermal shift assay.
(§4) Proteins were considered as stabilised or destabilised when, in all three replicates,
(§5) tailed p-values were determined by applying paired t-test comparing AUC of melting curves
(§6) between DMSO-treated and compound-treated conditions, OR
(§7) least ± 10 % (same direction) compared to the DMSO control.

[2] = target: T2, Jurkat cell lysate proteome (Homo sapiens, UniProt Q99523); assay: In-lysate thermal proteome profiling (TPP)
T2 sequence (Q99523 78-831): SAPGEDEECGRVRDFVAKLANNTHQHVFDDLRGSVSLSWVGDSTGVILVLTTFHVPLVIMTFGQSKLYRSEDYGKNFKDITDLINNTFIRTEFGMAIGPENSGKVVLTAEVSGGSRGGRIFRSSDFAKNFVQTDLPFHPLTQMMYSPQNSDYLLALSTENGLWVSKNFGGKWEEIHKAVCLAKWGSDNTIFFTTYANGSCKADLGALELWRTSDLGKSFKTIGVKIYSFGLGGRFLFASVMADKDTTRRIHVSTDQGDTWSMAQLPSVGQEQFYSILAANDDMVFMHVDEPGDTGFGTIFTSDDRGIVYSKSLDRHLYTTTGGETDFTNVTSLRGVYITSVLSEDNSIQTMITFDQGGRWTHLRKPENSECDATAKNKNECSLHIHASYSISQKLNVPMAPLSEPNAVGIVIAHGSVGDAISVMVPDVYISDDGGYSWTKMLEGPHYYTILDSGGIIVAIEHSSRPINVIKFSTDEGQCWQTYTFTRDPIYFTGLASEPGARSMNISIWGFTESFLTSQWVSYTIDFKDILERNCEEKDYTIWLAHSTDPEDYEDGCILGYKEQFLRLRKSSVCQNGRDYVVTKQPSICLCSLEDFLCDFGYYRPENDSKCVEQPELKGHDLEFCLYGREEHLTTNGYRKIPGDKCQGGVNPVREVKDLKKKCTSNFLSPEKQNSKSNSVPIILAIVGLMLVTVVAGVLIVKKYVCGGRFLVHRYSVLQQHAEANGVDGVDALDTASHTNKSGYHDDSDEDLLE
Method: as §1, §2, §3, §4, §5, §6, §7

[3] = target: T3, Jurkat cell lysate proteome (Homo sapiens, UniProt P22087); assay: In-lysate thermal proteome profiling (TPP)
T3 sequence (P22087 1-321): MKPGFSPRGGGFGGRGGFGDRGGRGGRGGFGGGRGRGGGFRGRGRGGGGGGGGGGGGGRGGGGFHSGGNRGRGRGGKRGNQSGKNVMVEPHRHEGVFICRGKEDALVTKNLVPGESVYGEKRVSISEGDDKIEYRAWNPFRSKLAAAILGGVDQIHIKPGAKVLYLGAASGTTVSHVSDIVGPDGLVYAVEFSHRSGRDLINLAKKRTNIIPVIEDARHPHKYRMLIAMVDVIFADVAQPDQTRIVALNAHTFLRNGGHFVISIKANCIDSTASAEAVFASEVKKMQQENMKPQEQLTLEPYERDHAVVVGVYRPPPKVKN
Method: as §1, §2, §3, §4, §5, §6, §7

[4] = target: Jurkat cell lysate proteome (Homo sapiens, UniProt O75044); assay: In-lysate thermal proteome profiling (TPP)
Method: as §1, §2, §3, §4, §5, §6, §7

[5] = target: Jurkat cell lysate proteome (Homo sapiens, UniProt Q9H583); assay: In-lysate thermal proteome profiling (TPP)
Jurkat cell lysate proteome (Homo sapiens, UniProt Q9H583), sequence (Q9H583 whole entry): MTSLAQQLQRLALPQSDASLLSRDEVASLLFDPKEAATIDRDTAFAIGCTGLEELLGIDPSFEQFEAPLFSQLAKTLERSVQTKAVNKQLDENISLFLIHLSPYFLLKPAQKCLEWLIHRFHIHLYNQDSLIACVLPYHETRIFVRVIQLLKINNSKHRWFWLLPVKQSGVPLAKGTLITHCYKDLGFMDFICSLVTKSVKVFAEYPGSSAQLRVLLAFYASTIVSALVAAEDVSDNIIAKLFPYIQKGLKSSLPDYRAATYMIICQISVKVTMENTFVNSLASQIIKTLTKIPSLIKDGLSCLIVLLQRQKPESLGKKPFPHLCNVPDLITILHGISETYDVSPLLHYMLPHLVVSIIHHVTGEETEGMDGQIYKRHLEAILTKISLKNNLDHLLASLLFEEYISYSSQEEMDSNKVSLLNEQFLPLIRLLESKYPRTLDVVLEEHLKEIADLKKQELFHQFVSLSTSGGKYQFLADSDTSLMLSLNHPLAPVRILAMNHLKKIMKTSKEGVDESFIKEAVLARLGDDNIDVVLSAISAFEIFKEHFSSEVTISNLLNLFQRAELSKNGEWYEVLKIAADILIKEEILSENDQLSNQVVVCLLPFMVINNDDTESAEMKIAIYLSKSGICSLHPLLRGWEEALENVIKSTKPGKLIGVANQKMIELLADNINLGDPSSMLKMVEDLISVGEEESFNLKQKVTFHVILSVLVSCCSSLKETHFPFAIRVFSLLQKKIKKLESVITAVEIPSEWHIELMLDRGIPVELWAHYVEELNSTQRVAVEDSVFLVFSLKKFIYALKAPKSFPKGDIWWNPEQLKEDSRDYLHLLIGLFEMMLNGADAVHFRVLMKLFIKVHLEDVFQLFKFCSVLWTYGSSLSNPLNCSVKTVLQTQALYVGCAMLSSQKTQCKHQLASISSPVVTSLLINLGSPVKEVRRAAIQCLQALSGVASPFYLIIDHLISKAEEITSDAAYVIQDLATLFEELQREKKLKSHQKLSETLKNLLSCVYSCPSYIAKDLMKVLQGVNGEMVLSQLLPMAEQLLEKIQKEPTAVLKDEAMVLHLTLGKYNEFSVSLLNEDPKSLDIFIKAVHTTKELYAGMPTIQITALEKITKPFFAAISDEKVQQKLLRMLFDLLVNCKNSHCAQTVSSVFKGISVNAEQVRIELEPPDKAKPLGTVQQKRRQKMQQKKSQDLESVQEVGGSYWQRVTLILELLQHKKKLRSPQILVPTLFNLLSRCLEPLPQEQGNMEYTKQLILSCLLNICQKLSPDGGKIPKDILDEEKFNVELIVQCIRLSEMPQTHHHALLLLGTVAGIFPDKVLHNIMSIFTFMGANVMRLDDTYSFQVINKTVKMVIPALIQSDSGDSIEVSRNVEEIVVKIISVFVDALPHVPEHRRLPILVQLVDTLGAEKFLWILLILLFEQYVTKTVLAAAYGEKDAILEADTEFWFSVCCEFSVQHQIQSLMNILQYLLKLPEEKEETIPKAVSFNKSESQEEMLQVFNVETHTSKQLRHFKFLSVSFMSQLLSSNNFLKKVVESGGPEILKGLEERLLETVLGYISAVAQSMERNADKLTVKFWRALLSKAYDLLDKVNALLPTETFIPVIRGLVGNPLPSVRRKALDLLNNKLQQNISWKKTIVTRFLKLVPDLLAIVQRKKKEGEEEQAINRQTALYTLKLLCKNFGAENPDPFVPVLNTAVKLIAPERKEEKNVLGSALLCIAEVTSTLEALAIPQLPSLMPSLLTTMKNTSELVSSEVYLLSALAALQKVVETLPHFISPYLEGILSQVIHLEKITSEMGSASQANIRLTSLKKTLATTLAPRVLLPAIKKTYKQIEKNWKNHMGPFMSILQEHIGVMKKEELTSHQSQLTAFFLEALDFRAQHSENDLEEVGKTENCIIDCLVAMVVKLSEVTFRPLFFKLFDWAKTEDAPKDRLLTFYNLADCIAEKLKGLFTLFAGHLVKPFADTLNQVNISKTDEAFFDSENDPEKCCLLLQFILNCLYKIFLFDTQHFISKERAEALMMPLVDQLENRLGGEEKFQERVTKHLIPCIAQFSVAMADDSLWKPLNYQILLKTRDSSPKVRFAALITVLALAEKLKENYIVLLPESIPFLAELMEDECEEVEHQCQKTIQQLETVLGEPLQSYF
Method: as §1, §2, §3, §4, §5, §6, §7

[6] = target: Jurkat cell lysate proteome (Homo sapiens, UniProt P07195); assay: In-lysate thermal proteome profiling (TPP)
Jurkat cell lysate proteome (Homo sapiens, UniProt P07195), sequence (P07195 whole entry): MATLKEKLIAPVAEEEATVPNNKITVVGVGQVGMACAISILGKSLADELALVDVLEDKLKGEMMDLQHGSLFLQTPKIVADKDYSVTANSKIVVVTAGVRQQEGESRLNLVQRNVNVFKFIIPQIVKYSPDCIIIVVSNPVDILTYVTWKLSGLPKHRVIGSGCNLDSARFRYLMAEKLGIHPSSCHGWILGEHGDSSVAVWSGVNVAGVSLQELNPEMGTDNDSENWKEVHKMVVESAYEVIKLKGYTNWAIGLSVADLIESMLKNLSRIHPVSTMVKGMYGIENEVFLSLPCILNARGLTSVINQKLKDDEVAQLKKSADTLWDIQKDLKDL
Method: as §1, §2, §3, §4, §5, §6, §7

[7] = target: Jurkat cell lysate proteome (Homo sapiens, UniProt O43924); assay: In-lysate thermal proteome profiling (TPP); conditions: 10 µM, 15 min
Jurkat cell lysate proteome (Homo sapiens, UniProt O43924), sequence (O43924 whole entry): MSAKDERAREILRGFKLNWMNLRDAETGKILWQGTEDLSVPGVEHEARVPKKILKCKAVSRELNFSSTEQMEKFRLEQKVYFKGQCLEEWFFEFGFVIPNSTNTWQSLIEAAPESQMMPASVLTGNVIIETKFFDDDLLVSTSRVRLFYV
Method: as §1, §2, §3, §4, §5, §6, §7

[8] = target: Jurkat cell lysate proteome (Homo sapiens, UniProt Q15382); assay: In-lysate thermal proteome profiling (TPP); conditions: 10 µM, 15 min
Jurkat cell lysate proteome (Homo sapiens, UniProt Q15382), sequence (Q15382 whole entry): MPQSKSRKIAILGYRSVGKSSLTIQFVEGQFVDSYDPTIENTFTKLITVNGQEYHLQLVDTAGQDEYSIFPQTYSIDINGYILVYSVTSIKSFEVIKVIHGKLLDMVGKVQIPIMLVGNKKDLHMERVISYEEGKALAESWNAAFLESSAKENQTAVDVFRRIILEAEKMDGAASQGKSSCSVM
Method: as §1, §2, §3, §4, §5, §6, §7

[9] = target: Jurkat cell lysate proteome (Homo sapiens, UniProt P56134); assay: In-lysate thermal proteome profiling (TPP)
Jurkat cell lysate proteome (Homo sapiens, UniProt P56134), sequence (P56134 whole entry): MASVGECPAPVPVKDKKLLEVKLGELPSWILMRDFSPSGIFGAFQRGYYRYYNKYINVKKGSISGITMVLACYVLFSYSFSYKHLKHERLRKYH
Method: as §1, §2, §3, §4, §5, §6, §7

[10] = target: T4, Jurkat cell lysate proteome (Homo sapiens, UniProt P24666); assay: In-lysate thermal proteome profiling (TPP)
T4 sequence (P24666 1-158): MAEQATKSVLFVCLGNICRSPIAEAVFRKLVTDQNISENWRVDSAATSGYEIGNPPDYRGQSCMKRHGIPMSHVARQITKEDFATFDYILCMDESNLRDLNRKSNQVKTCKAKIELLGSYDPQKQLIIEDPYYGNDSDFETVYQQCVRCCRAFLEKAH
Method: as §1, §2, §3, §4, §5, §6, §7

PDEδ in Jurkat cells = target: T5, PDEδ in Jurkat cells (Homo sapiens, UniProt O43924); assay: CETSA in intact cells (in-cell CETSA); assay type: cell-based; conditions: 15 min at 37 °C
T5 construct: host or cells: Jurkat
T5 sequence (O43924 whole entry): as the sequence (O43924 whole entry) above
Method: Cells were collected and resuspended in cold PBS and further washed thrice in cold PBS. […] Afterwards, NP40 alternative was added to a final concentration of 0.4% (v/v), and cells were lysed by five consecutive freeze/thaw cycles. […] Supernatants were transferred to new tubes, and equal volumes of each sample were loaded on an SDS-PAGE gel and subjected to immunoblot analysis.

Cc1ccc(-n2nc3c(=O)n(CCCCS(=O)(=O)N(CCc4cccc(CCBr)c4)CC4CCNCC4)nc(C)c3c2C)cc1 [6a]
ΔAUC SLC38A1 ([1]; 10 µM, 15 min): -3.3 | ΔI67°C SLC38A1 ([1]; 10 µM, 15 min): -13 ± 5% | ΔTm at 10 µM ([1]; read-out: ΔTm SLC38A1, 10 µM, 15 min): -3.1 ± 0.5 °C | ΔAUC SORT1 ([2]; 10 µM, 15 min): -3.6 | ΔI67°C SORT1 ([2]; 10 µM, 15 min): -16 ± 7% | ΔTm at 10 µM ([2]; read-out: ΔTm SORT1, 10 µM, 15 min): -2.2 ± 2.4 °C | ΔAUC FBL ([3]; 10 µM, 15 min): -1.8 | ΔI67°C FBL ([3]; 10 µM, 15 min): -1 ± 2% | ΔTm at 10 µM ([3]; read-out: ΔTm FBL, 10 µM, 15 min): -1.8 ± 1.1 °C | ΔAUC SRGAP2 ([4]; 10 µM, 15 min): -2.5 | ΔI67°C SRGAP2 ([4]; 10 µM, 15 min): -10 ± 7% | ΔAUC SRGAP2 ([4]; 10 µM, 15 min, listed as DeltaTag): −2.5 | ΔTm at 10 µM ([4]; read-out: ΔTm SRGAP2, 10 µM, 15 min): -1.3 ± 1.1 °C | ΔAUC HEATR1 ([5]; 10 µM, 15 min): -2.9 | ΔI67°C HEATR1 ([5]; 10 µM, 15 min): -8 ± 6% | ΔTm at 10 µM ([5]; read-out: ΔTm HEATR1, 10 µM, 15 min): -2.8 ± 1.1 °C | ΔAUC LDHB ([6]; 10 µM, 15 min): -1.8 | ΔI67°C LDHB ([6]; 10 µM, 15 min): -1 ± 4% | ΔTm at 10 µM ([6]; read-out: ΔTm LDHB, 10 µM, 15 min): -2.9 ± 0.7 °C | ΔI67°C PDE6D [7]: 21 ± 7% | ΔAUC RHEB [8]: -1.5 | ΔI67°C RHEB [8]: -6 ± 8% | ΔTm RHEB [8]: -0.9 ± 0.8 °C | ΔAUC RHEB ([8]; listed as DeltaTag): −1.5 | ΔTm RHEB ([8]; listed as DeltaTag): −0.89 °C | ΔI67°C ATP5J2 ([9]; 10 µM, 15 min): 1 ± 1% | ΔTm at 10 µM ([9]; read-out: ΔTm ATP5J2, 10 µM, 15 min): -2 ± 1 °C | ΔAUC ACP1 ([10]; 10 µM, 15 min): 2.1 | ΔI67°C ACP1 ([10]; 10 µM, 15 min): 0 ± 4% | ΔTm at 10 µM ([10]; read-out: ΔTm ACP1, 10 µM, 15 min): 2.3 ± 0.3 °C | ΔTm at 10 µM (PDEδ in Jurkat cells): 9.3 ± 0.2 °C
